# In patent US12653817B2, “Pharmaceutical composition comprising protein kinase inhibitor and chemotherapeutic drug and use thereof” (SHENZHEN CHIPSCREEN BIOSCIENCES CO., LTD., priority 2020, dated 2026):
# “Also recorded” adds a separate entry of the source.
# Experiments:
# [1] = test system: relapsed and refractory ovarian cancer; assay: Phase Ib single-arm clinical trial of chiauranib capsules, efficacy; assay type: in vivo, human
# Description: A single-arm, multi-center, non-randomized, open-label phase Ib trial.
# Main inclusion criteria: Patients with histologically diagnosed epithelial ovarian cancer, fallopian tube cancer or primary peritoneal carcinoma; patients who had received platinum-based chemotherapy regimens, and platinum-resistant patients who achieved progressive or relapsed disease after had received ≥2 different chemotherapy regimens; platinum-sensitive patients who achieved progressive or relapsed disease after had received ≥2 different chemotherapy regimens, or who refused to receive further chemotherapy.
# (§1) Medication regimen: 50 mg of chiauranib was taken orally every morning on an empty stomach, once a day, every 28 days as a treatment cycle, and there was no drug withdrawal interval between the treatment cycles. The treatment was continued until any of the following conditions occurred (whichever occurred first): progressive disease, intolerable toxicity reaction, death, withdrawal of informed consent, or loss to follow-up.
# Efficacy indicators: The efficacy indicators were evaluated by investigators and imaging experts according to RECIST1.1 criteria.
# Main: Objective response rate (ORR).
# Secondary: Progression-free survival (PFS), time to progression (TTP), 16-week disease control rate (16W-DCR), duration of response (DOR) of disease, overall survival (OS).
# Twenty-five patients with relapsed and refractory ovarian cancer were enrolled in the study, and the number of previous treatment regimens they had received was ≥3. 3 cases (12.0%) were sensitive to the last platinum-containing chemotherapy, and 22 cases (88.0%) were refractory or resistant to the last platinum-containing chemotherapy. As of the cut-off date for trial data (Mar. 20, 2019), 16 patients (64.0%) discontinued the treatment due to progressive disease, 3 patients (12.0%) discontinued the treatment due to adverse events, and other reasons for the discontinuation of the treatment comprised voluntary withdrawal of subjects, end of trial and loss to follow-up.
# The full analysis set (FAS) and safety data set (SS) were used for analysis, and 25 subjects were included in each data set.
# [2] = Phase Ib single-arm clinical trial of chiauranib capsules, safety evaluation; assay type: in vivo
# Protocol: as §1
# The safety indicators comprised adverse events, vital signs, ECG and abnormal laboratory results, which were evaluated according to CTCAE V4.03. Twenty-five patients with relapsed and refractory ovarian cancer were enrolled in the study and included in the safety data set (SS) for analysis.
# [3] = test system: platinum-refractory/resistant relapsed advanced ovarian cancer; details: historical data; cited from earlier work
# [4] = 25 patients, cut-off Mar. 20, 2019
# [5] = chiauranib 50 mg orally once a day, N = 25, cut-off Mar. 20, 2019
# [6] = increase in serum creatine phosphokinase MB, 25 subjects
smiles,measurement,setting,value
"COc1ccc2c(Oc3ccc4c(C(=O)Nc5ccccc5N)cccc4c3)ccnc2c1 [chiauranib, N-(2-aminophenyl)-6-(7-methoxyquinoline-4-oxy)-1-naphthamide]","Discontinued the treatment due to progressive disease, %",[1]; [4],64.0%
same,"Discontinued the treatment due to progressive disease, patients",[1]; [4],16 patients
same,"Duration of response, Event","[1]; N = 25, cut-off Mar. 20, 2019",0
same,"Overall survival, Event","[1]; N = 25, cut-off Mar. 20, 2019",11
same,"Progression-free survival, Event (progressive disease or death)","[1]; N = 25, cut-off Mar. 20, 2019",12
same,"Time to progression, Event","[1]; N = 25, cut-off Mar. 20, 2019",11
same,16-week disease control rate,"[1]; chiauranib 50 mg orally once a day, N = 25",32.0%
same,Objective response rate,"[1]; chiauranib 50 mg orally once a day, N = 25, RECIST1.1",4.0%
same,"Progression-free survival, median",[1]; [5],3.7 month
same,"Time to progression, median",[1]; [5],3.7 month
same,"Efficacy conclusion, single-agent",[1]; subjects with platinum-refractory/resistant relapsed ovarian cancer who had received multiple chemotherapies,shown preliminary efficacy in tumor response; also recorded: showed primary efficacy of tumor response
same,"Abdominal pain, %",[2]; 25 subjects,52.0%
same,"Abdominal pain, cases",[2]; 25 subjects,13 cases
same,"Adverse event leading to the discontinuation of the treatment, %",[2]; 25 subjects,12.0%
same,"Adverse event leading to the discontinuation of the treatment, patients",[2]; 25 subjects,3 patients
same,"Adverse event leading to the suspension of chiauranib, %",[2]; 25 subjects,40.7%
same,"Adverse event leading to the suspension of chiauranib, patients",[2]; 25 subjects,11 patients
same,"At least one common adverse event, %",[2]; 25 subjects,100%
same,"At least one common adverse event, subjects",[2]; 25 subjects,25 subjects
same,"Diarrhea, %",[2]; 25 subjects,72.0%
same,"Diarrhea, cases",[2]; 25 subjects,18 cases
same,Discontinuation due to bile duct obstruction,[2]; 25 subjects,"dysfunction syndrome, 1 case of bile duct"
same,Discontinuation due to electrolyte disturbance,[2]; 25 subjects,"obstruction, and 1 case of electrolyte"
same,"Fatigue, %",[2]; 25 subjects,64.0%
same,"Fatigue, cases",[2]; 25 subjects,16 cases
same,"Hypertension, %",[2]; 25 subjects,44.0%
same,"Hypertension, cases",[2]; 25 subjects,11 cases
same,"Loss of appetite, %",[2]; 25 subjects,64.0%
same,"Loss of appetite, cases",[2]; 25 subjects,16 cases
same,"Proteinuria, %",[2]; 25 subjects,60.0%
same,"Proteinuria, cases",[2]; 25 subjects,15 cases
same,Related serious adverse event: hypokalemia,[2]; 25 subjects,"electrolyte disturbance, 1 case of hypokalemia,"
same,"Serious adverse events judged to be related to chiauranib (definitely related, possibly related, undetermined), cases",[2]; 25 subjects,5 cases
same,Suspension due to decreased appetite,[2]; 25 subjects,"ventricular dysfunction, 1 case of infection, 1"
same,Suspension due to increased alanine aminotransferase,[2]; 25 subjects,1 case
same,Suspension due to infection,[2]; 25 subjects,"ventricular dysfunction, 1 case of infection, 1"
same,Suspension due to proteinuria,[2]; 25 subjects,2 cases
same,"Weight loss, %",[2]; 25 subjects,56.0%
same,"Weight loss, cases",[2]; 25 subjects,14 cases
same,"Serious adverse events, % of patients","[2]; 25 subjects, CTCAE V4.03",32.0%
same,"Serious adverse events, cases","[2]; 25 subjects, CTCAE V4.03",9 cases
same,"Serious adverse events, patients","[2]; 25 subjects, CTCAE V4.03",8 patients
same,"Adverse event leading to the reduction of the dosage of chiauranib, %",[2]; [6],4.0%
same,"Adverse event leading to the reduction of the dosage of chiauranib, patients",[2]; [6],One
same,"Adverse event leading to death, %","[2]; multiple organ dysfunction syndrome, 25 subjects",4.0%
same,"Adverse event leading to death, patients","[2]; multiple organ dysfunction syndrome, relation to chiauranib undetermined, 25 subjects",One
same,Tolerability of single-agent therapy,[2]; toxicity characteristics similar to VEGFR target drugs,can be tolerated by most subjects
COc1cc([C@@H]2c3cc4c(cc3[C@@H](O[C@@H]3O[C@@H]5CO[C@@H](C)O[C@H]5[C@H](O)[C@H]3O)[C@H]3COC(=O)[C@H]23)OCO4)cc(OC)c1O [etoposide],Response rate of single-agent,[3],about 27%
CC(=O)O[C@H]1C(=O)[C@@]2(C)[C@H]([C@H](OC(=O)c3ccccc3)[C@]3(O)C[C@H](OC(=O)[C@H](O)[C@@H](NC(=O)c4ccccc4)c4ccccc4)C(C)=C1C3(C)C)[C@]1(OC(C)=O)CO[C@@H]1C[C@@H]2O [paclitaxel],Response rate of single-agent,[3],about 21%
